Source: patent publication US6413995B1, “Cinnamamide derivatives and drug compositions containing the same” (Tsumura & Co., priority 1999, dated 2002)
Where two headings read alike, the source gives them in different places. Values belong to the compound of their own block, whether it stands above or below them.

Key:
[1] = tested on: IL-12; assay: Inhibition of IL-12 production by mouse peritoneal macrophages (ELISA); assay type: cell-based, mice; conditions: Macrophage, read-out: Inhibitory rate (%) IL-12; for inhibition at 10 µM: 10 μM/L; for inhibition at 10 µg/mL: 10 μg/ml; for inhibition at 50 µg/mL: 50 μg/ml; for inhibition at 100 µg/mL: 100 μg/ml; for inhibition at 1 µg/mL: 1 μg/ml; for inhibition at 5 µg/mL: 5 μg/ml
Method: (§1) C57BL/6CrSlc male mice were intraperitoneally injected with 2.0 ml of 3% Brewer tioglycolate medium. Three days later, macrophages were collected from the abdominal cavity with 5.0 ml Hank's balanced salt solution, and then equally divided into each well of a 48-well plate using RPMI 1640 medium supplemented with 10% FBS (Fetal Bovine Serum), followed by incubation in a CO2 incubator for 1 hour. After the macrophages adhered to the walls of the plate, they were incubated for 48 hours in the presence of a test compound with different concentrations. Following the incubation, the supernatant was collected from each well, assayed for IL-6, IL-10 and L-12 by ELISA to determine inhibitory rates against the production of these interleukins.

[2] = biological target: T1, Thromboxane A2 Synthase (Rattus norvegicus, UniProt P49430); assay: Inhibitory effect on thromboxane A2 synthase: TXB2 in rat platelet rich plasma; assay type: cell-based, rats; conditions: 10 μmol/l, rat PRP
T1 construct: centrifuged at 1,300 rpm for 7 minutes to obtain platelet rich plasma (PRP); from tissue; host or cells: platelet rich plasma (washed platelets) from the abdominal aorta blood of Sprague-Dawley rats
T1 sequence (P49430 1-533): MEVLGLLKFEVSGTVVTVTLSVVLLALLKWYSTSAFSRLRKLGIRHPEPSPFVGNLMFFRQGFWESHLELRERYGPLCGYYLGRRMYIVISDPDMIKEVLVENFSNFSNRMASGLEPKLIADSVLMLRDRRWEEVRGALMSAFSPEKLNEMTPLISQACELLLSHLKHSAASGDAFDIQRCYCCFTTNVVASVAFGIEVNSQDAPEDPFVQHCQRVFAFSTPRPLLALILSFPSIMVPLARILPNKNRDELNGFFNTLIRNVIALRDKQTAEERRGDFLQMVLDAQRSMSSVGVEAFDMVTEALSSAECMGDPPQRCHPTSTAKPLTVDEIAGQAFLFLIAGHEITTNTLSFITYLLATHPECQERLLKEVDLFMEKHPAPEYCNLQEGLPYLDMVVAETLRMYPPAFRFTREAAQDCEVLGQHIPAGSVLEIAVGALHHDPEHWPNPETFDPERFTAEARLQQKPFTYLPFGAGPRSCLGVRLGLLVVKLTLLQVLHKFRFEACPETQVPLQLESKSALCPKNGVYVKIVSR
Method: Eight week old Sprague-Dawley male rats were used in this example. The rats were anesthetized with pentobarbital sodium. The blood was collected from the abdominal aorta using a heparinized syringe, and centrifuged at 1,300 rpm for 7 minutes to obtain platelet rich plasma (PRP). PRP was suspended in an equivalent volume of a buffer containing 25 mmol/l Tris-HCl, 130 mmol/l sodium chloride and 0.3 mmol/l EDTA (pH 7.4)(buffer A), followed by centrifugation at 4° C., at 1,500 rpm for 5 minutes. This procedure was repeated twice, and PRP was finally suspended in a buffer containing 25 mmol/l Tris-HCl, 130 mmol/l, 0.1% glucose and 0.1% albumin (pH7.4)(buffer B).
5×10^6 cells/mm^3 PRP preparation in buffer B was divided into each well of a 96-well plate in an amount of 150 μl/well. Each test substance was prepared at a final concentration of 10 μmol/l and added to the PRP preparation in an amount of 50 μl/well. Immediately after addition of the test substance, 5 μl of an aggregation-inducing agent, type IV collagen (1 mg/ml) or arachidonic acid (50 mmol/l), was added and incubated for 10 minutes. 20 μl of an EDTA-indomethacin solution was added to the each well to stop the reaction. The supernatant was assayed for thromboxane B2 (TXB2), stable metabolite of thromboxane A2 (TXA2), using a TXB2 measurement kit (Cayman).

[3] = tested on: IL-10; assay: Inhibition of IL-10 production by mouse peritoneal macrophages (ELISA); assay type: cell-based, mice; conditions: Macrophage, 48 hours, read-out: Inhibitory rate (%) IL-10; for inhibition at 10 µg/mL: 10 μg/ml; for inhibition at 50 µg/mL: 50 μg/ml; for inhibition at 100 µg/mL: 100 μg/ml; for inhibition at 1 µg/mL: 1 μg/ml; for inhibition at 5 µg/mL: 5 μg/ml
Method: as §1

[4] = tested on: IL-6; assay: Inhibition of IL-6 production by mouse peritoneal macrophages (ELISA); assay type: cell-based, mice; conditions: Macrophage, 48 hours, read-out: Inhibitory rate (%) IL-6; for inhibition at 10 µg/mL: 10 μg/ml; for inhibition at 50 µg/mL: 50 μg/ml; for inhibition at 100 µg/mL: 100 μg/ml; for inhibition at 1 µg/mL: 1 μg/ml; for inhibition at 5 µg/mL: 5 μg/ml
Method: as §1

[5] = tested on: Rats with Minimal Change Nephrosis; assay: Inhibitory effects on urinary proteins in rats with minimal change nephrosis (Puromycin Aminonucleoside); assay type: in vivo; conditions: S.D. male rats, PA 50 mg/kg i.v., test drug 2 mg/kg/day from day 6 to day 11, assayed at day 11
Method: Six week old S.D. male rats were intravenously injected with Puromycin Aminonucleoside (PA; SIGMA)at a dose of 50 mg/kg so as to develop nephrosis. Six days after PA treatment, the rats were administered with a test drug at a dose of 2 mg/kg/day by day 11. Each rat was assayed for an excreted urinary protein level at day 11 to determine an inhibitory rate.

[6] = arachidonic acid, 10 minutes, read-out: TXB2 induced by arachidonic acid (Inhibitory rate; %)
[7] = type IV collagen, 10 minutes, read-out: TXB2 induced by collagen (Inhibitory rate; %)
[8] = summary of Table 3, read-out: inhibitory activity against TXA2 production mediated by collagen or arachidonate

SMILES: O=C(O)CCc1ccc(/C=C/C(=O)NCCc2ccccn2)cc1 [Example 79]
inhibition at 10 µM ([1]; 48 hours): 43%

inhibition at 10 µM [2, 6]: 23% | inhibition at 10 µM [2, 7]: 47%
SMILES: O=C(O)COc1ccc(/C=C/C(=O)NCCc2ccccn2)cc1 [Example 73]

SMILES: N#C/C(=C\c1ccc(OCC(=O)O)cc1)C(=O)NCc1cccnc1 [Example 82, Sodium [4-[2-Cyano-2-[N-(3-pyridylmethyl)carbamoyl]ethenyl]phenoxy]acetate]
inhibition at 10 µM ([1]; 48 h): 30.7%

SMILES: CCOC(=O)COc1ccc(/C=C/C(=O)N(C)Cc2cccnc2)cc1 [Example 2, Ethyl [4-[(E)-2-[N-Methyl-N-(3-pyridylmethyl)carbamoyl]ethenyl]phenoxy]-acetate]
inhibition at 10 µg/mL [3]: 27.8% | inhibition at 50 µg/mL [3]: 51.4% | inhibition at 100 µg/mL [3]: 50% | inhibition at 10 µg/mL ([1]; 48 hours): 35% | inhibition at 50 µg/mL ([1]; 48 hours): 63.8% | inhibition at 100 µg/mL ([1]; 48 hours): 65.4% | inhibition at 10 µg/mL [4]: 58.8% | inhibition at 50 µg/mL [4]: 78.9% | inhibition at 100 µg/mL [4]: 88%

SMILES: O=C(/C=C/c1ccc(OC(F)(F)C(=O)O)cc1)NCc1cccnc1 [Example 74]
inhibition at 10 µM ([1]; 48 hours): 51.1%

SMILES: COC(=O)COc1ccc(/C=C/C(=O)NCCc2ccccn2)cc1 [Example 16]
inhibition at 1 µg/mL [3]: 49.9% | inhibition at 5 µg/mL [3]: 50.1% | inhibition at 10 µg/mL [3]: 34.9% | inhibition at 1 µg/mL ([1]; 48 hours): 31.4% | inhibition at 5 µg/mL ([1]; 48 hours): 47.4% | inhibition at 10 µg/mL ([1]; 48 hours): 40.3% | Inhibitory rate (%) of excreted urinary protein level [5]: 42% | inhibition at 1 µg/mL [4]: 26.1% | inhibition at 5 µg/mL [4]: 41.3% | inhibition at 10 µg/mL [4]: 79%

inhibition at 10 µM [2, 6]: 61% | inhibition at 10 µM [2, 7]: 46% | inhibition at 10 µM [2, 8]: ≥ 50%
SMILES: CN(Cc1cccnc1)C(=O)/C=C/c1ccc(OCC(=O)O)cc1 [Example 72]

SMILES: COC(=O)COc1ccc(/C=C/C(=O)NCc2ccccn2)cc1 [Example 29]
inhibition at 10 µg/mL [3]: -25.7% | inhibition at 10 µg/mL ([1]; 48 hours): 37.6% | inhibition at 10 µg/mL [4]: -9.5%

SMILES: N#C/C(=C\c1ccc(OCC(=O)O)cc1)C(=O)NCc1cccnc1 [Example 83, [4-[2-Cyano-2-[N-(3-pyridylmethyl)carbamoyl]ethenyl]phenoxy]acetic Acid]
inhibition at 10 µM ([1]; 48 hours): 40.9%

SMILES: CN(C)C(=O)COc1ccc(/C=C(\C#N)C(=O)NCc2cccnc2)cc1 [Example 84]
inhibition at 10 µM ([1]; 48 hours): 38.9%

SMILES: Cl.O=C(O)COc1ccc(/C=C/C(=O)NCc2cccnc2)cc1 [Example 36, [4-[(E)-2-[N-(3-pyridylmethyl)carbamoyl]ethenyl]phenoxy]acetic acid hydrochloride]
inhibition at 10 µg/mL [3]: -45.8% | inhibition at 50 µg/mL [3]: -13% | inhibition at 100 µg/mL [3]: 22.2% | inhibition at 10 µg/mL ([1]; 48 hours): 52.1% | inhibition at 50 µg/mL ([1]; 48 hours): 82.1% | inhibition at 100 µg/mL ([1]; 48 hours): 64% | Inhibitory rate (%) of excreted urinary protein level [5]: 29% | inhibition at 10 µg/mL [4]: 53.1% | inhibition at 50 µg/mL [4]: 56.7% | inhibition at 100 µg/mL [4]: 21.7%

SMILES: CCOC(=O)COc1ccc(/C=C/C(=O)NCCc2cccnc2)cc1 [Example 10]
inhibition at 10 µg/mL [3]: 29.5% | inhibition at 50 µg/mL [3]: 33.3% | inhibition at 100 µg/mL [3]: 27.8% | inhibition at 10 µg/mL ([1]; 48 hours): 30.3% | inhibition at 50 µg/mL ([1]; 48 hours): 27.8% | inhibition at 100 µg/mL ([1]; 48 hours): 35% | Inhibitory rate (%) of excreted urinary protein level [5]: 56% | inhibition at 10 µg/mL [4]: 61.2% | inhibition at 50 µg/mL [4]: 63.5% | inhibition at 100 µg/mL [4]: 61.6%

SMILES: COC(=O)CCc1ccc(/C=C/C(=O)NCCc2ccccn2)cc1 [Example 78]
inhibition at 10 µM ([1]; 48 hours): 49.2%

SMILES: O=C(O)CNc1ccc(/C=C/C(=O)NCc2cccnc2)cc1 [Example 88, [[4-[(E)-2-[N-(3-Pyridylmethyl)carbamoyl]ethenyl]phenyl]amino]acetic Acid]
inhibition at 10 µM ([1]; 48 hours): 26.4%

SMILES: COC(=O)COc1ccc(/C=C/C(=O)NCc2cccnc2)cc1 [Example 7, methyl [4-[(E)-2-[N-(3-pyridylmethyl)carbamoyl]ethenyl]phenoxy]acetate]
inhibition at 1 µg/mL [3]: 17.9% | inhibition at 5 µg/mL [3]: 1.3% | inhibition at 10 µg/mL [3]: 25.4% | inhibition at 1 µg/mL ([1]; 48 hours): 28.4% | inhibition at 5 µg/mL ([1]; 48 hours): 40.1% | inhibition at 10 µg/mL ([1]; 48 hours): 52.5% | Inhibitory rate (%) of excreted urinary protein level [5]: 50% | inhibition at 1 µg/mL [4]: 13.5% | inhibition at 5 µg/mL [4]: 31.5% | inhibition at 10 µg/mL [4]: 32.5%

SMILES: COC(=O)COc1ccc(/C=C/C(=O)NCCc2ccncc2)cc1 [Example 30]
inhibition at 10 µg/mL [3]: -38.9% | inhibition at 10 µg/mL ([1]; 48 hours): 71.7% | inhibition at 10 µg/mL [4]: 58.8%

SMILES: COC(=O)CC(O)c1ccc(/C=C/C(=O)NCc2cccnc2)cc1 (centres unmarked) [Example 80, methyl 3-hydroxy-3-[4-[2-[N-(3-pyridylmethyl)carbamoyl]ethenyl]phenyl]propionate]
inhibition at 10 µM ([1]; 48 hours): 52.3%

SMILES: COC(=O)/C=C/c1ccc(/C=C/C(=O)NCc2cccnc2)cc1 [Example 76]
inhibition at 10 µM ([1]; 48 hours): 50%

inhibition at 10 µM [2, 6]: 23% | inhibition at 10 µM [2, 7]: 12%
SMILES: CNC(=S)COc1ccccc1/C=C/C(=S)NCc1cccnc1 [Example 65, (E)-3-[2-[[N-(Methyl)thiocarbamoyl]methoxy]phenyl]-N-(3-pyridylmethyl)-2-propenoic Acid Thioamide]

inhibition at 10 µM [2, 6]: 36% | inhibition at 10 µM [2, 7]: 14%
SMILES: NC(=O)COc1ccc(/C=C/C(=O)NCc2cccnc2)cc1 [Example 41]

SMILES: CCOC(=O)COc1ccc(/C=C(\C#N)C(=O)NCc2cccnc2)cc1 [Example 81, Ethyl [4-[2-Cyano-2-[N-(3-pyridylmethyl)carbamoyl]ethenyl]phenoxy]acetate]
inhibition at 10 µM ([1]; 48 hours): 41%

inhibition at 10 µM [2, 6]: 26% | inhibition at 10 µM [2, 7]: 26%
SMILES: O=C(O)COc1ccccc1/C=C/C(=O)NCc1cccnc1 [Example 37]

SMILES: CCOC(=O)COc1ccc(/C(C)=C/C(=O)NCc2cccnc2)cc1 [Example 85, Ethyl [4-[(E)-1-Methyl-2-[N-(3-Pyridylmethyl)carbamoyl]ethenyl]phenoxy]acetate]
inhibition at 10 µM ([1]; 48 hours): 47.4%

inhibition at 10 µM [2, 6]: 56% | inhibition at 10 µM [2, 7]: 43% | inhibition at 10 µM [2, 8]: ≥ 50%
SMILES: O=C(/C=C/c1ccccc1OCC(=O)NO)NCc1cccnc1 [Example 53]
